Measured values from ChEMBL document CHEMBL2396642, “Discovery of novel series of 6-benzyl substituted 4-aminocarbonyl-1,4-diazepane-2,5-diones as human chymase inhibitors using structure-based drug design” (Bioorg Med Chem, 2013).

Key:
Neutrophil elastase = molecular target: T1, Neutrophil elastase (Homo sapiens, UniProt P08246); experiment: Inhibition of human neutrophil elastase using MeOSuc-Ala-Ala-Pro-Val-pNA as substrate preincubated for 10 mins followed by substrate addition measured after 10 mins by fluorescence assay
T1 sequence (P08246 whole entry): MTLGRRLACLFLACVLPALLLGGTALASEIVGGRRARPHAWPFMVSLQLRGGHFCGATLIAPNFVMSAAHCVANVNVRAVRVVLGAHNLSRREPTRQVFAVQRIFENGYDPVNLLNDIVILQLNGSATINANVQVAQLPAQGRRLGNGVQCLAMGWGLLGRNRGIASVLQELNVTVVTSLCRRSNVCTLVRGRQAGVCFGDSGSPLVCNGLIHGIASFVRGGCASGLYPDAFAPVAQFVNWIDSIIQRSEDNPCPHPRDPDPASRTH

Cathepsin G = molecular target: T2, Cathepsin G (Homo sapiens, UniProt P08311); experiment: Inhibition of human neutrophil cathepsin G using Boc-Gln-Ala-Arg-MCA as substrate preincubated for 10 mins followed by substrate addition measured after 10 mins by fluorescence assay
T2 sequence (P08311 whole entry): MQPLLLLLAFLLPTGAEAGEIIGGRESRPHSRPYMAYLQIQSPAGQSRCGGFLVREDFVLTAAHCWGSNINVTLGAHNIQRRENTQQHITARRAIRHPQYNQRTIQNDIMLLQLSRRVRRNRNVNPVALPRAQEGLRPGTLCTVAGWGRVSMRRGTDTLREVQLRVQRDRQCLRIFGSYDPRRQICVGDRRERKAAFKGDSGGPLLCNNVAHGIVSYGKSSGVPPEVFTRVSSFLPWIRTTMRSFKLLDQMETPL

[1] = Inhibition of bovine pancreatic alpha-chymotrypsin using Suc-Ala-Ala-Pro-Phe-MCA as substrate preincubated for 10 mins followed by substrate addition measured after 10 mins by fluorescence assay; design: species or system Bos taurus

IC50 (Neutrophil elastase) [µM] | IC50 (Cathepsin G) [µM] | IC50 [1] [µM] | Structure (SMILES)
> 10 | > 10 | > 10 | CC[C@@H](NC(=O)N1CC(=O)NCC(Cc2cc(Cl)ccc2OC)C1=O)C(=O)Nc1nnn[nH]1 (some centres undefined)
> 100 | 7.8 | > 88 | CC[C@@H](NC(=O)N1CC(=O)NC[C@@H](Cc2cc(Cl)ccc2OC)C1=O)c1cc(C(=O)O)co1
> 10 | 8.5 | > 10 | CC[C@@H](NC(=O)N1CC(=O)NCC(Cc2cc(Cl)ccc2OC)C1=O)C(=O)Nc1cccc(C(=O)O)c1 (some centres undefined)
100 |  | > 100 | CC[C@@H](NC(=O)N1CC(=O)NC[C@@H](Cc2cc(Cl)ccc2OC)C1=O)c1ccc(C(=O)O)c(N)c1
> 10 | > 10 | > 10 | CC[C@@H](NC(=O)N1CC(=O)NCC(Cc2cc(Cl)ccc2OC)C1=O)C(=O)Nc1cccc(N)c1 (some centres undefined)
